From patent publication US12617795B2, “Substituted 6,7-dihydro-5H-pyrrolo[3,4-d]pyrimidines, 5,7-dihydrofuro[3,4-d]pyrimidines, and pyrido[2,3-d]pyrimidines as KCC2 modulators” (Astrazeneca AB, priority 2020, dated 2026)

Each molecule was assayed against T1, KCC2 (Homo sapiens, UniProt Q9H2X9) (assay: KCC2 thallium transport FLIPR-based assay (Tl+ influx in HEK293 cells expressing KCC2)). Details: 90 min compound incubation at RT, thallium flux at 120 s used to determine EC50.
T1 construct: expressed in transfected cells; host or cells: HEK293 cells electroporated (Maxcyte STX) with the pcDNA3.1 KCC2 plasmid
T1 sequence (Q9H2X9 1-1139): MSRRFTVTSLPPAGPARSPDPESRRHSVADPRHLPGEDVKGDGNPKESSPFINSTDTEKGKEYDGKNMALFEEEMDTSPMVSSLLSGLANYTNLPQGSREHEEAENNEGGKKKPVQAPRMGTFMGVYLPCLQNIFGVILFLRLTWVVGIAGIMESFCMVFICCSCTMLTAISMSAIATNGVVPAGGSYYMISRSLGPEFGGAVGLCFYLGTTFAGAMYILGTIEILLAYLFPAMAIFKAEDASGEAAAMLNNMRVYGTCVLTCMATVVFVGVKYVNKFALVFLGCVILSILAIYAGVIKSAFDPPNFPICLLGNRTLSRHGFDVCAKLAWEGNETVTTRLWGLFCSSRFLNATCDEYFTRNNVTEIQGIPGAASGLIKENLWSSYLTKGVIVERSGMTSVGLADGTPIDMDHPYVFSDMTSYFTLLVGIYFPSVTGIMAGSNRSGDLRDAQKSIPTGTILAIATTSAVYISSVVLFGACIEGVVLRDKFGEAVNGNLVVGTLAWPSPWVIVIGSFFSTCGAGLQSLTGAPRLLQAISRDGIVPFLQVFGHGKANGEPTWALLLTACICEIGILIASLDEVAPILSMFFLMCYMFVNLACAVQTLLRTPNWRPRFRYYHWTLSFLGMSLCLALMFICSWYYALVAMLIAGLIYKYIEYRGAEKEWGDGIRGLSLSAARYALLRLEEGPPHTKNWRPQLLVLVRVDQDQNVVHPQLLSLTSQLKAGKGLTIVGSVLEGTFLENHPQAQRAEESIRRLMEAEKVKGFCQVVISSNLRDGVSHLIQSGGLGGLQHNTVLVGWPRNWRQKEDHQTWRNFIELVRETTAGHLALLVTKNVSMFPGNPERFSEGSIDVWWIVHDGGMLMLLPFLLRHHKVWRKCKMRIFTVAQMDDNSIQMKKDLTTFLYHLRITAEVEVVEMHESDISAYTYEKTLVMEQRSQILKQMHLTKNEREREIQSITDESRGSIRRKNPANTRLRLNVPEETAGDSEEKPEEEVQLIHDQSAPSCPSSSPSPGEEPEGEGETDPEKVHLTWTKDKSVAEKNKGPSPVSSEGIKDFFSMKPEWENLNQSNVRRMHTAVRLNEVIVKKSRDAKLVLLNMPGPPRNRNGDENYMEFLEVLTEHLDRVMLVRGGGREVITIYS
Type: cell-based
Experimental: A thallium transport FLIPR-based assay was used to measure the ability of compounds to activate KCC2. KCC2 activity is assessed by measuring KCC2-dependent Tl^+ influx in a KCC2-expressing cell. The assay protocol was based on those described by Delpire et al (Proc Natl Acad Sci USA. 2009 Mar. 31; 106(13): 5383-5388) and Zhang et al (Journal of Biomolecular Screening 15(2): 2010).
KCC2 was synthesised and codon optimised by GeneArt based on the Uniprot sequence Q9H2X9. The final sequence was subcloned into pcDNA3.1.
HEK293 cells were grown in 10 layer cell stacks at 37° C., 5% CO2, in DMEM, 10% fetal calf serum and 2 mM Glutamine. The cells were detached by removing the media and washing the cell stack with 100 ml of PBS. The PBS was removed and 100 ml of 1× TrypLE was added and the cell stack returned to 37° C. for 5 min. The detached cells were then counted in a Vi Cell counter and spun for 10 min at 1250 rpm in a Sorval Legend centrifuge. The cells were diluted down in Maxcyte electroporation buffer at 4× the final concentration and spun as before. The cell pellet was resuspended at 1×10^8/cells per ml and electroporated in a Maxcyte Cl 2.2 bag on a Maxcyte STX machine via the HEK293 programme with 200 ug/ml of plasmid DNA. The cells were then allowed to recover for 30 min before adding to 500 ml of PBS and then counted again on the Vi Cell. The cells were then frozen down in planer controlled rate freeze in 90% complete media, 10% DMSO.
All reagents were dispensed using a Mulitdrop Combi unless stated otherwise. All FluXOR Invitrogen propriety buffer compositions are mentioned in tables below.
HEK293 KCC2 cells were harvested at a density of 3.33×10^5 cells/mL in complete media (DMEM, Sigma, D6546, 10% fetal calf serum and 1% Glutamax) and 30 μL per well seeded into 384-well PDL coated black-clear plates (Corning, 354663). Leave cells at RT for 20 mins to settle before incubating for 48 h at 37° C., 5% CO2. Following incubation, perform three wash steps in HBSS (Sigma, H6648) using a Biotek cell washer with the final aspiration leaving 20 μL HBSS residual volume in each well. A further 20 μL per well of thallium loading dye is then added (1 h, RT, protect from light). 5 μL of test compounds (100 μM top concentration, 1:2 dilutions, 12 point curve) were added using the FLIPR TETRA and incubated at RT for 90 min in the dark. Following compound incubation, the thallium flux response is read on FLIPR TETRA (ex. 515-575 nm) which is initiated by FLIRR TETRA dispensing 5 μL stimulus buffer into each well. Recordings are measured every 1 second for 120 seconds. Thallium flux at 120 s used to determine EC50.
Compound buffer: Assay buffer with 1 μL of bumetanide per 10 ml.

Row | EC50 [µM] | Compound
1 | 6.3 | CC(C)N1Cc2c(Nc3ccc(C4CCCCC4)cc3)nc(N(C)CC(F)F)nc2C1=O [Example 36, 4-[(4-cyclohexylphenyl)amino]-2-[(2,2-difluoroethyl)(methyl)amino]-6-(propan-2-yl)-5,6-dihydro-7H-pyrrolo[3,4-d]pyrimidin-7-one]
2 | 6.3 | CC(C)N1Cc2c(Nc3ccc(C4CCCCC4)cc3)nc(N(C)CCc3ccccn3)nc2C1=O [Example 37, 4-[(4-cyclohexylphenyl)amino]-2-{methyl[2-(pyridin-2-yl)ethyl]amino}-6-(propan-2-yl)-5,6-dihydro-7H-pyrrolo[3,4-d]pyrimidin-7-one]
3 | 9.34 | CC(C)N1Cc2c(Nc3ccc(C4CCCCC4)cc3)nc(N3CCOC[C@H]3C(=O)O)nc2C1=O [Example 38, (3S)-4-{4-[(4-cyclohexylphenyl)amino]-7-oxo-6-(propan-2-yl)-6,7-dihydro-5H-pyrrolo[3,4-d]pyrimidin-2-yl}morpholine-3-carboxylic acid]
4 | 9.9 | CC(=O)NCCC1CN(c2nc(Nc3ccc(C4CCCCC4)cc3)c3c(n2)C(=O)N(C(C)C)C3)CCO1 (stereo not drawn) [Example 39, N-[2-(4-{4-[(4-cyclohexylphenyl)amino]-7-oxo-6-(propan-2-yl)-6,7-dihydro-5H-pyrrolo[3,4-d]pyrimidin-2-yl}morpholin-2-yl)ethyl]acetamide]
5 | 6.36 | CC(C)c1ccc(Nc2nc(-c3ccncc3)nc3c2CN(C(C)C)C3=O)cc1 [Example 40, 6-isopropyl-4-((4-isopropylphenyl)amino)-2-(pyridin-4-yl)-5,6-dihydro-7H-pyrrolo[3,4-d]pyrimidin-7-one]
6 | 0.518 | CC(C)N1Cc2c(Nc3ccc(C4CCCCC4)cc3)nc(-c3ccnc(C#N)c3)nc2C1=O [Example 41, 4-(4-((4-cyclohexylphenyl)amino)-6-isopropyl-7-oxo-6,7-dihydro-5H-pyrrolo[3,4-d]pyrimidin-2-yl)picolinonitrile]
7 | 0.633 | CC(C)N1Cc2c(Nc3ccc(C4CCCCC4)cc3)nc(-c3ccnc(C4CC4)c3)nc2C1=O [Example 42, 4-[(4-cyclohexylphenyl)amino]-2-(2-cyclopropylpyridin-4-yl)-6-(propan-2-yl)-5,6-dihydro-7H-pyrrolo[3,4-d]pyrimidin-7-one]

Continued, molecule first:

Row | Compound | EC50 [µM]
8 | CCC1CN(c2nc(Nc3ccc(C4CCCCC4)cc3)c3c(n2)C(=O)N(C(C)C)C3)CCO1 (stereo not drawn) [Example 21, 4-[(4-cyclohexylphenyl)amino]-2-(2-ethylmorpholin-4-yl)-6-(propan-2-yl)-5,6-dihydro-7H-pyrrolo[3,4-d]pyrimidin-7-one] | 2.64
9 | CC(C)N1Cc2c(Nc3ccc(C4CCCCC4)cc3)nc(N(C)Cc3ccon3)nc2C1=O [Example 22, 4-[(4-cyclohexylphenyl)amino]-2-{methyl[(1,2-oxazol-3-yl)methyl]amino}-6-(propan-2-yl)-5,6-dihydro-7H-pyrrolo[3,4-d]pyrimidin-7-one] | 2.79
10 | CC(C)N1Cc2c(Nc3ccc(C4CCCCC4)cc3)nc(N(C)CCc3ncon3)nc2C1=O [Example 23, 4-[(4-cyclohexylphenyl)amino]-2-{methyl[2-(1,2,4-oxadiazol-3-yl)ethyl]amino}-6-(propan-2-yl)-5,6-dihydro-7H-pyrrolo[3,4-d]pyrimidin-7-one] | 2.92
11 | CC(C)N1Cc2c(Nc3ccc(C4CCCCC4)cc3)nc(N3CCCOCC3)nc2C1=O [Example 24, 4-[(4-cyclohexylphenyl)amino]-2-(1,4-oxazepan-4-yl)-6-(propan-2-yl)-5,6-dihydro-7H-pyrrolo[3,4-d]pyrimidin-7-one] | 2.92
12 | CC(C)N1Cc2c(Nc3ccc(C4CCCCC4)cc3)nc(N3CCOC4(CCOCC4)C3)nc2C1=O [Example 25, 4-[(4-cyclohexylphenyl)amino]-2-(1,9-dioxa-4-azaspiro[5.5]undecan-4-yl)-6-(propan-2-yl)-5,6-dihydro-7H-pyrrolo[3,4-d]pyrimidin-7-one] | 3.41
13 | COC1CCN(c2nc(Nc3ccc(C4CCCCC4)cc3)c3c(n2)C(=O)N(C(C)C)C3)C1 (stereo not drawn) [Example 26, 4-[(4-cyclohexylphenyl)amino]-2-(3-methoxypyrrolidin-1-yl)-6-(propan-2-yl)-5,6-dihydro-7H-pyrrolo[3,4-d]pyrimidin-7-one] | 3.5
14 | CC(C)N1Cc2c(Nc3ccc(C4CCCCC4)cc3)nc(N3CCOC(CCO)C3)nc2C1=O (stereo not drawn) [Example 27, 4-[(4-cyclohexylphenyl)amino]-2-[2-(2-hydroxyethyl)morpholin-4-yl]-6-(propan-2-yl)-5,6-dihydro-7H-pyrrolo[3,4-d]pyrimidin-7-one] | 3.58
15 | CCCN(CCC)c1nc(Nc2ccc(C3CCCCC3)cc2)c2c(n1)C(=O)N(C(C)C)C2 [Example 29, 4-[(4-cyclohexylphenyl)amino]-2-(dipropylamino)-6-(propan-2-yl)-5,6-dihydro-7H-pyrrolo[3,4-d]pyrimidin-7-one] | 3.89
16 | CC(C)N1Cc2c(Nc3ccc(C4CCCCC4)cc3)nc(N(C)CC3CC3)nc2C1=O [Example 30, 4-[(4-cyclohexylphenyl)amino]-2-[(cyclopropylmethyl)(methyl)amino]-6-(propan-2-yl)-5,6-dihydro-7H-pyrrolo[3,4-d]pyrimidin-7-one] | 4.05
17 | CC(C)N1Cc2c(Nc3ccc(C4CCCCC4)cc3)nc(N3CCOC(CO)C3)nc2C1=O (stereo not drawn) [Example 31, 4-[(4-cyclohexylphenyl)amino]-2-[2-(hydroxymethyl)morpholin-4-yl]-6-(propan-2-yl)-5,6-dihydro-7H-pyrrolo[3,4-d]pyrimidin-7-one] | 4.81
18 | CC(C)N1Cc2c(Nc3ccc(C4CCCCC4)cc3)nc(N3CCOCC3CO)nc2C1=O (stereo not drawn) [Example 32, 4-[(4-cyclohexylphenyl)amino]-2-[3-(hydroxymethyl)morpholin-4-yl]-6-(propan-2-yl)-5,6-dihydro-7H-pyrrolo[3,4-d]pyrimidin-7-one] | 4.89
19 | CC(C)N1Cc2c(Nc3ccc(C4CCCCC4)cc3)nc(N(C)Cc3cnccn3)nc2C1=O [Example 33, 4-[(4-cyclohexylphenyl)amino]-2-{methyl[(prazin-2-yl)methyl]amino}-6-(propan-2-yl)-5,6-dihydro-7H-pyrrolo[3,4-d]pyrimidin-7-one] | 5.01
20 | CCN(CC)c1nc(Nc2ccc(C3CCCCC3)cc2)c2c(n1)C(=O)N(C(C)C)C2 [Example 34, 4-[(4-cyclohexylphenyl)amino]-2-(diethylamino)-6-(propan-2-yl)-5,6-dihydro-7H-pyrrolo[3,4-d]pyrimidin-7-one] | 5.21
21 | CC(C)N1Cc2c(Nc3ccc(C4CCCCC4)cc3)nc(N(C)CC3CCCO3)nc2C1=O (stereo not drawn) [Example 35] | 6.3
